This is an account of results in patent publication US4756710A, “pH-Mediated drug delivery system” (Merck & Co., Inc., priority 1986, dated 1988).

The conditions of data set [1]: in water at 25° C.; reported; cited from earlier work.
For data set [2] the following is noted: from equation (1); 30 percent ethanol/water; polyurethane membrane 0.0038 cm.
Data set [3] can be described thus: Solubility of timolol maleate in pH controlled glycol reservoir vehicles. Type of data set: physicochemical.
Data set [4] is classed as physicochemical. To be noted: not told. The protocol:
Several pH controlled reservoir systems were prepared in a similar manner employing non-aqueous or aqueous glycol vehicles and different buffering agents. For this example, sorbitol USP and 70 percent aqueous propylene glycol were employed. The pH was adjusted with either Na2 HPO4 or Na2 CO3. pH measurements were made on a pH meter with a standard glass electrode and the flux determined in a diffusion cell employing a mineral oil soaked Celgard membrane to separate the buffered reservoir from the receptor phase.

A short description of data set [5]: Solubility in mineral oil. The data set is classed as physicochemical.
Data set [6] in a line: Concentration of timolol base in aqueous buffer solutions calculated with the Henderson-Hasselbalch equation. To be noted: pH 9.0; 15 mg/ml timolol maleate in aqueous buffer. The data set is classed as physicochemical. The source says:
where T is the time lag. Thus, after determining T, D may be calculated. By experimentally determining flux, and substituting in equation (1), K may be obtained. Having thus determined K and D, the desired flux may be achieved by making appropriate modifications of the pH, thereby the concentration, and/or the thickness of the membrane. The appropriate modifications in pH may be arrived at by preparing a series of buffer solutions containing a known quantity of the salt form of drug at various pH values and substituting in the Henderson-Hasselbalch equation, [formula] C, the concentration of the unionized form, may be calculated.

On data set [7], the source says:
The following operation illustrates with timolol the relationship among pH, the concentration C, of the timolol base in solution in the reservoir, and the flux calculated from the data as well as the observed flux obtained by placing the compositions behind the selected membrane in a diffusion cell and measuring the rate of release into an isotonic phosphate buffer of pH 7.4.
As a first step in determining the relationship between pH, concentration of timolol, its pK and the pH of the reservoir, an aqueous solution of 7.0 mg/ml of timolol was placed in a diffusion measuring cell fitted with a 1.5 mil (0.0038 cm) thick silicone membrane and the transport of timolol from the reservoir of the test cell to an isotonic pH 7.4 receptor phase was measured over a period of about eight hours by sampling the solution in the receptor phase, assaying this solution for drug by direct ultraviolet assay method and calculating the drug concentration over time, thereafter plotting the drug diffused per square centimeter versus time and calculating the regression line.
From the calculated concentration of the timolol base, the previously determined values for D and K and the known thickness of the membrane, the steady state flux was calculated (equation (1)). Thereafter, the steady state flux was determined experimentally by measuring the transport of timolol at each pH from the buffer system into an isotonic receptor phase through the silicone membrane.

≈ marks a conversion by molar mass, not a printed value. Where a name gives a salt, the structure may show the parent alone. Read-outs that look alike come from different tables or passages of the source.

Take `CC1=C(CC(=O)O)c2cc(F)ccc2/C1=C\c1ccc([S+](C)[O-])cc1` (centres unmarked) [sulindac]: the pKa in data set [1] is given as 4.7. In addition, the “product KD” value in data set [2] is listed as 9.38×10^-4 cm^2 /hr.

In the case of `CC(C)(C)NC[C@H](O)COc1nsnc1N1CCOCC1` [timolol maleate], the solubility in data set [3] (70% propylene glycol + na2co3, organic solvent or mixture, 70% Propylene glycol +Na2 CO3, apparent pH 7.6) stood at 124 mg/mL; in data set [3] (sorbitol usp + na2co3, Sorbitol USP +Na2 CO3, apparent pH 9.6), 0.7 mg/mL; in data set [3] (sorbitol usp + na2hpo4, Sorbitol USP +Na2 HPO4, apparent pH 6.9), 17.2 mg/mL. In addition, the “Jobs (flux)” value in data set [4] (pH 6.9) was 6.7 mcg/cm^2 /hr; in data set [4] (pH 7.6) it was 7.4 mcg/cm^2 /hr; in data set [4] (pH 9.6) it was 2.8 mcg/cm^2 /hr. In addition, the “solubility in mineral oil” value in data set [5] is on record as “substantially insoluble”.

Regarding `CC(C)(C)NC[C@H](O)COc1nsnc1N1CCOCC1` [timolol], the Cs Timolol Base in data set [6] is 4210 µg/mL. Also, in data set [5] (organic solvent or mixture, 32° C.), the solubility was about 7 mg/mL (≈ 22.1 mM). The “partition coefficient between drug reservoir and membrane, K” value in data set [7] is 2.05. For the same compound, the “time lag, T” value in data set [7] (aqueous solution of 7.0 mg/ml timolol, 1.5 mil silicone membrane, plot extrapolated to time axis) is 0.0096 h. The “drug diffusion coefficient in the membrane, D” value in data set [7] (silicone membrane, from equations (1) and (2)) is reported as 2.5×10^-4 cm^2 /hr.
